Key:
FAK = molecular target: T1, FAK (Homo sapiens, UniProt Q05397); experiment: FAK-HiBiT Degradation Assay; assay type: cell-based; details: for DC50: JHH-4-FAK-HiBiT clone d01 cells, two hours incubation, 10-point dose response, 3-fold dilution starting at 1 μM, Nano-Glo HiBiT luminescence, read-out: FAK HiBiT EC50; for FAK HiBiT Ymin: lower limit of the four parameter fit (value A), Ymax derived using DMSO control, JHH-4-FAK-HiBiT cells, two hours
T1 construct: homozygous knock-in of a HiBiT tag (Promega Corporation, Madison, WI) to the C-terminus of the FAK gene in its natural genomic locus; endogenous in cells; host or cells: JHH-4-FAK-HiBiT clone d01 (CRISPR-Cas9 knock-in at the endogenous locus)
From the text: To generate JHH-4-FAK-HiBiT cells for the FAK degradation assay, JHH-4 cells (Japanese Collection of Research Biosources Cell Bank, Japan) were transfected with ribonucleoprotein reagents to introduce, by CRISPR-Cas9 editing, the homozygous knock-in of a HiBiT tag (Promega Corporation, Madison, WI) to the C-terminus of the FAK gene in its natural genomic locus. Clonal cell populations were established by expanding single cells after CRISPR-Cas9 editing, with a clonal cell line named JHH-4-FAK-HiBiT clone d01 confirmed by next generation DNA sequencing to contain the expected HiBiT edited FAK gene and was selected for FAK degradation screening. Cells were selected and maintained in complete DMEM media (DMEM, 10% Heat Inactivated FBS, and Non-Essential Amino Acids at 37° C. and 5% CO2). Cells were passaged every 3-4 days by reseeding 0.5×10^6 cells in a T75 flask.
Cells were dispensed into 384-well white plates (Corning #3570, NY) that were pre-spotted with compounds using an acoustic dispenser (Echo acoustic transfer system, Beckman Coulter Life Sciences, Carlsbad, CA) as a 10-point dose response curve with a 3-fold dilution starting at 1 μM and including a DMSO control. Twenty-five microliters of media containing 2000 JHH-4-FAK-HiBiT Clone d01 cells was dispensed per well. Assay plates were incubated at 37° C. with 5% CO2 for two hours. After incubation, 25 μL of Nano-Glo HiBiT Lytic Reagent Working Solution (Promega Corporation, Madison, WI) was added to each well and incubated at room temperature for 10 minutes protected from light. After 10 minutes, luminescence was read on a PHERAstar luminometer (BMG Labtech, Cary, NC).
To determine the half-maximal effective concentration (EC50) values for FAK-HiBIT degradation, a four parameter logistic model was used: (Sigmoidal Dose-Response Model)(FIT=(A+((B−A)/1+((C/x)^D)))) where C is the inflection point (EC50), D is the Hill slope, and A and B are the low and high limits of the fit respectively). The lower limit of the fit (value A) is referred to as Ymin. The maximum limit constraint, Ymax, was derived using DMSO control. The curves were processed and evaluated using Dotmatics Atlas (Insightful Science, LLC, Boston, MA).

CAL-51 cells = experiment: CAL-51 Cell Proliferation Assay; assay type: cell-based; details: for EC50: Homo sapiens, 120 hours incubation, 10-point dose response, 4-fold dilutions starting at 10 μM, Cell-Titer-Glo, read-out: CAL-51 Prolif EC50; for CAL-51 Prolif Ymin: minimal percent of DMSO control observed in the concentrations tested (Ymin-obs), 120 hours
From the text: CAL-51 cells were obtained from Bristol Myers Squibb internal cell banks (originally sourced from DSMZ-German Collection of Microorganisms and Cell Cultures GmbH, Germany) and cultured in RPMI complete media (RPMI-1640, 10% Fetal Bovine serum, 1× Antibiotic-Antimycotic, and 1× Non-Essential Amino Acids). Compounds were dispensed into 384-well plates using an acoustic dispenser (Beckman Coulter Life Sciences, Carlsbad, CA) in duplicate with 14 compounds on each plate. For each compound, a 10-point dose response was printed at 4-fold dilutions starting at 10 μM. The DMSO concentration was kept constant for a final assay concentration of 0.1% per well assuming 50 uL final media volume. Compound plates were sealed and frozen at −20° C. until use.
For each assay batch, compound plates were thawed and allowed to reach room temperature, and cells were seeded at 350 cells per well in 50 μl complete RPMI media. After 120 hours of incubation at 37° C. and 5% CO2, cells were lysed by addition of 25 μL of Cell-Titer-Glo Reagent (Promega Corporation, Madison, WI), as per manufacturer's instructions, protected from light, shaken for 20 minutes, and total luminescence read by a CLARIOstar Plus plate reader (BMG LabTech, Cary, NC). Total luminescence signal is linearly correlated with cell number remaining in the well.
Luminescence data was processed per plate by subtracting reagent-only “blank” well luminescence from all measured values and calculating a percent of DMSO control value for each treatment well. Then, to determine the half-maximal effective concentration (EC50) values for cell growth inhibition, a four parameter logistic model was fit to the data for each DMSO-normalized compound: Sigmoidal Dose-Response Model: (FIT=(A+((B−A)/1+((C/x)^D)))) where C is the inflection point (EC50), D is the Hill slope, and A and B are the low and high limits of the fit respectively. The lower limit of the fit (value A) is referred to as Ymin-calculated. The minimal percent of DMSO control that is observed in the concentrations tested for each compound is labeled as “Ymin-obs”, and was recorded and reported in the tables. Sigmoidal fit curves were processed and evaluated using Dotmatics Atlas (Insightful Science, LLC, Boston, MA).

T1 sequence (Q05397 whole entry): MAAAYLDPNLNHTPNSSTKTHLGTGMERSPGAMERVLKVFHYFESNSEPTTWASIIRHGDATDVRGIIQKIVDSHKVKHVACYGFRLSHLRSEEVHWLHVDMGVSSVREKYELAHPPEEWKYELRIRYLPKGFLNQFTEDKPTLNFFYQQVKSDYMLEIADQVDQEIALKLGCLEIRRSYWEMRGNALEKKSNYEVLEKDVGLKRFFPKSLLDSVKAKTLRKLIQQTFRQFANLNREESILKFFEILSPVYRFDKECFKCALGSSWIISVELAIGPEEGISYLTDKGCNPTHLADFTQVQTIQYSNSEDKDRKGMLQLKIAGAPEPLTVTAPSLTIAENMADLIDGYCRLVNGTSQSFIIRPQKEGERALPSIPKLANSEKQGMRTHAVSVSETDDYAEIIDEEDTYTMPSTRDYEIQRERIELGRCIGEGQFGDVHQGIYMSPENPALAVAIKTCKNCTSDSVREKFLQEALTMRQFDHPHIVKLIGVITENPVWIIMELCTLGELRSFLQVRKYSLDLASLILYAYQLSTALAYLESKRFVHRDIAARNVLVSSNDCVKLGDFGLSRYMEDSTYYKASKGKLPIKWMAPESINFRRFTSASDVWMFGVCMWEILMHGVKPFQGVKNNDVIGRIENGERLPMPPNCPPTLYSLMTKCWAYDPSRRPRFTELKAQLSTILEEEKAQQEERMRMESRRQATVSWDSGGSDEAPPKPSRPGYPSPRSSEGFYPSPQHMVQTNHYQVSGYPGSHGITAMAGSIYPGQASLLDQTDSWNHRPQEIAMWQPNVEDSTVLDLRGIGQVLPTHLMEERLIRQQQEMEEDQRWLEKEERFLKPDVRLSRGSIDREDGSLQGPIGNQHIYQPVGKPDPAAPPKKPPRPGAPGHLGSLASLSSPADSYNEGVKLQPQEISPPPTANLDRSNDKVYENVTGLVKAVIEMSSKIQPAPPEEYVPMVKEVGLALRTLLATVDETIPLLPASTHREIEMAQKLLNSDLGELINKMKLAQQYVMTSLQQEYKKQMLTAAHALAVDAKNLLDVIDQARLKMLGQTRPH

SMILES | DC50 (FAK) [nM] | FAK HiBiT Ymin (FAK) | EC50 (CAL-51 cells) [nM] | CAL-51 Prolif Ymin (CAL-51 cells)
O=C1CCC(N2Cc3cc(Cn4ncc5c(-c6ccc(C(F)(F)F)cc6Cl)cc(N6CC(F)C6)nc54)ccc3C2=O)C(=O)N1 (stereo not drawn) [Example 48, 3-[5-({4-[2-chloro-4-(trifluoromethyl)phenyl]-6-(3-fluoroazetidin-1-yl)-1H-pyrazolo[3,4-b]pyridin-1-yl}methyl)-1-oxo-2,3-dihydro-1H-isoindol-2-yl]piperidine-2,6-dione] | 1.87 | 8.06 | 0.52 | 19.89
O=C1CCC(N2Cc3cc(Cn4ncc5c(-c6ncc(C(F)(F)F)cc6Cl)c(F)c(N6CC(F)C6)nc54)ccc3C2=O)C(=O)N1 (stereo not drawn) [Example 3, 3-[5-({4-[3-chloro-5-(trifluoromethyl)pyridin-2-yl]-5-fluoro-6-(3-fluoroazetidin-1-yl)-1H-pyrazolo[3,4-b]pyridin-1-yl}methyl)-1-oxo-2,3-dihydro-1H-isoindol-2-yl]piperidine-2,6-dione] | 0.29 | 8.97 | 1.42 | 23.98
Cc1cc(C(F)(F)F)cnc1-c1cc(N2CC[C@H](O)C2)nc2c1cnn2Cc1ccc2c(c1)CN([C@H]1CCC(=O)NC1=O)C2=O [Example 110, (3S)-3-[5-({6-[(3S)-3-hydroxypyrrolidin-1-yl]-4-[3-methyl-5-(trifluoromethyl)pyridin-2-yl]-1H-pyrazolo[3,4-b]pyridin-1-yl}methyl)-1-oxo-2,3-dihydro-1H-isoindol-2-yl]piperidine-2,6-dione] | 45.3 | 14.00 | 186 | 10.20
O=C1CCC(N2Cc3cc(Cn4ncc5c(-c6ncc(C(F)(F)F)cc6Cl)cc(N6CC(F)C6)cc54)ccc3C2=O)C(=O)N1 (stereo not drawn) [Example 26, 3-(5-((4-(3-chloro-5-(trifluoromethyl)pyridin-2-yl)-6-(3-fluoroazetidin-1-yl)-1H-indazol-1-yl)methyl)-1-oxoisoindolin-2-yl)piperidine-2,6-dione] | 8.5 | 11.53 | 2.32 | 24.69
CC(C)(O)c1cnc(-c2cc(N3CC(F)C3)nc3c2cnn3Cc2ccc3c(c2)CN([C@H]2CCC(=O)NC2=O)C3=O)c(Cl)c1 [Example 119, (3S)-3-[5-({4-[3-chloro-5-(2-hydroxypropan-2-yl)pyridin-2-yl]-6-(3-fluoroazetidin-1-yl)-1H-pyrazolo[3,4-b]pyridin-1-yl}methyl)-1-oxo-2,3-dihydro-1H-isoindol-2-yl]piperidine-2,6-dione] | 84.9 | 40.36 | 27 | 59.05
O=C1CC[C@H](N2Cc3cc(Cn4ncc5c(-c6ncc(C(F)(F)F)cc6Cl)cc(NCCF)nc54)ccc3C2=O)C(=O)N1 [Example 146, (S)-3-(5-((4-(3-chloro-5-(trifluoromethyl)pyridin-2-yl)-6-((2-fluoroethyl)amino)-1H-pyrazolo[3,4-b]pyridin-1-yl)methyl)-1-oxoisoindolin-2-yl)piperidine-2,6-dione] | 13.1 | 22.43 | 9.4 | 57.23
Cc1nc2c(-c3ncc(F)cc3Cl)cc(N3CC(F)C3)nc2n1Cc1ccc2c(c1)CN(C1CCC(=O)NC1=O)C2=O (stereo not drawn) [Example 24, 3-(5-((7-(3-chloro-5-fluoropyridin-2-yl)-5-(3-fluoroazetidin-1-yl)-2-methyl-3H-imidazo[4,5-b]pyridin-3-yl)methyl)-1-oxoisoindolin-2-yl)piperidine-2,6-dione] | 29.6 | 5.76 | 4.05 | 23.72
N#Cc1cnc(-c2cc(N3CCC3)nc3c2cnn3Cc2ccc3c(c2)CN(C2CCC(=O)NC2=O)C3=O)c(F)c1 (stereo not drawn) [Example 84, 6-[6-(azetidin-1-yl)-1-{[2-(2,6-dioxopiperidin-3-yl)-1-oxo-2,3-dihydro-1H-isoindol-5-yl]methyl}-1H-pyrazolo[3,4-b]pyridin-4-yl]-5-fluoropyridine-3-carbonitrile] | 10.3 | 19.19 | – | –
N#Cc1ccc(-c2cc(N3CCC3)nc3c2cnn3Cc2ccc3c(n2)CN(C2CCC(=O)NC2=O)C3=O)c(Cl)c1 (stereo not drawn) [Example 101, 4-[6-(azetidin-1-yl)-1-{[6-(2,6-dioxopiperidin-3-yl)-5-oxo-5H,6H,7H-pyrrolo[3,4-b]pyridin-2-yl]methyl}-1H-pyrazolo[3,4-b]pyridin-4-yl]-3-chlorobenzonitrile] | 29.2 | 11.17 | – | –
O=C1CC[C@H](N2Cc3cc(Cn4ncc5c(-c6ncc(Cl)cc6F)cc(N6CC[C@H](O)C6)nc54)ccc3C2=O)C(=O)N1 [Example 141, (3S)-3-(5-{[4-(5-chloro-3-fluoropyridin-2-yl)-6-[(3S)-3-hydroxypyrrolidin-1-yl]-1H-pyrazolo[3,4-b]pyridin-1-yl]methyl}-1-oxo-2,3-dihydro-1H-isoindol-2-yl)piperidine-2,6-dione] | 9 | 53 | – | –
CC(C)Nc1cc(-c2ncc(C#N)cc2Cl)c2cnn(Cc3ccc4c(c3)CN(C3CCC(=O)NC3=O)C4=O)c2n1 (stereo not drawn) [Example 103, 5-chloro-6-(1-{[2-(2,6-dioxopiperidin-3-yl)-1-oxo-2,3-dihydro-1H-isoindol-5-yl]methyl}-6-[(propan-2-yl)amino]-1H-pyrazolo[3,4-b]pyridin-4-yl)pyridine-3-carbonitrile] | 30.5 | 13.98 | – | –
CN(C)c1cc(-c2ccc(C#N)cc2Cl)c2ncn(Cc3ccc4c(c3)CN(C3CCC(=O)NC3=O)C4=O)c2n1 (stereo not drawn) [Example 18] | 8.37 | 4.01 | – | –
CC(C)Nc1cc(-c2ccc(C#N)cc2F)c2cnn(Cc3ccc4c(c3)CN(C3CCC(=O)NC3=O)C4=O)c2n1 (stereo not drawn) [Example 92, 4-(1-{[2-(2,6-dioxopiperidin-3-yl)-1-oxo-2,3-dihydro-1H-isoindol-5-yl]methyl}-6-[(propan-2-yl)amino]-1H-pyrazolo[3,4-b]pyridin-4-yl)-3-fluorobenzonitrile] | 14.1 | 26.48 | – | –
CC(C)Nc1cc(-c2ncc(C#N)cc2F)c2cnn(Cc3ccc4c(c3)CN(C3CCC(=O)NC3=O)C4=O)c2n1 (stereo not drawn) [Example 137, 6-(1-{[2-(2,6-dioxopiperidin-3-yl)-1-oxo-2,3-dihydro-1H-isoindol-5-yl]methyl}-6-[(propan-2-yl)amino]-1H-pyrazolo[3,4-b]pyridin-4-yl)-5-fluoropyridine-3-carbonitrile] | ≥ 1000 | 81.91 | – | –

Reference: US20260078119A1, “DEGRADER COMPOUNDS AND USES THEREOF” (Bristol-Myers Squibb Company, priority 2024, published 2026)
